Data: US9617602B2, “Methods and compositions for determining resistance to androgen receptor therapy” (Aragon Pharmaceuticals, Inc., priority 2012, dated 2017)

What was measured:
[1] = system: Class 2 resistant cell lines; test: Transcriptional reporter assay (probasin-luciferase); assay type: cell-based, human
Method: With the exception of the LNCaP/AR(cs)-Luc cells that contain an integrated androgen responsive reporter, cells were transiently transfected using Lipofectin® (Life Technologies) according to the manufacturer's protocol. […] Following transfection, the cells were incubated for 4 hours.
Following 48 hour incubation the medium was removed and the cells were lysed in 40 μL of lysis buffer (25 mM Tris Phosphate, 2 mM CDTA, 10% Glycerol, 0.5% Triton X-100, 2 mM DTT).

LNCaP/AR(cs) cells = test: Endogenous gene transcriptional assay (real-time PCR of androgen responsive genes); assay type: cell-based, human
Method: Total RNA was isolated using the Aurum™ total RNA isolation kit (BIO-RAD, Hercules, Calif.). RNA (1 μg) was reverse transcribed using the iScript cDNA synthesis kit (BIO-RAD, Hercules, Calif.) to produce cDNA. Real-time PCR was performed using the Applied Biosystems 7900HT instrument and SYBR Green PCR Master Mix (Applied Biosystems, Foster City, Calif.). PCR reactions were performed in 6 μL according to the manufacturer's protocol and a thermocycle protocol of 95° C. for 10 minutes followed by 40 cycles of 95° C. for 15 seconds and 58° C. for 1 minute. Androgen responsive gene (PSA, SLUG, TMPRSS2, STEAP4, FKBP5, ORM1, NOV, FASN, NKX3.1, AMIGO2, BDNF, CAMK2N1, HPGD, NCAPD3, PLD1) expression was normalized to GAPDH expression and expressed relative to vehicle treatment of the parental cell line.
Gene expression was normalized to GAPDH as described above.

CNC(=O)c1ccc(N2C(=S)N(c3ccc(C#N)c(C(F)(F)F)c3)C(=O)C2(C)C)cc1F [Enzalutamide, enzalutamide]
Agonist activity in probasin-luciferase reporter assay, Class 2 resistant cells [1]: weak partial agonist | Agonist Transcriptional Reporter Assay (% Max Activity) ([1]; Class 2, [Antagonists] = 50 μM): ++ (‘++’ = >5) | Antagonist Transcriptional Reporter Assay (% Max Activity) ([1]; Class 2, [Antagonists] = 50 μM in presence of R1881): ++ (‘++’ = >5) | AMIGO2 expression, antagonist transcription (LNCaP/AR(cs) cells; +1 nM R1881, 0.3 μM): 0.49 | BDNF expression, antagonist transcription (LNCaP/AR(cs) cells; +1 nM R1881, 0.3 μM): 0.61 | CAM2KN1 expression, antagonist transcription (LNCaP/AR(cs) cells; +1 nM R1881, 0.3 μM): 0.04 | FASN expression, antagonist transcription (LNCaP/AR(cs) cells; +1 nM R1881, 0.3 μM): 1.30 | FKBP5 expression, antagonist transcription (LNCaP/AR(cs) cells; +1 nM R1881, 0.3 μM): 23.51 | HPGD expression, antagonist transcription (LNCaP/AR(cs) cells; +1 nM R1881, 0.3 μM): 99.16 | NCAPD3 expression, antagonist transcription (LNCaP/AR(cs) cells; +1 nM R1881, 0.3 μM): 23.74 | NKX3.1 expression, antagonist transcription (LNCaP/AR(cs) cells; +1 nM R1881, 0.3 μM): 7.70 | NOV expression, antagonist transcription (LNCaP/AR(cs) cells; +1 nM R1881, 0.3 μM): 0.11 | PLD1 expression, antagonist transcription (LNCaP/AR(cs) cells; +1 nM R1881, 0.3 μM): 0.02 | PSA expression, antagonist transcription (LNCaP/AR(cs) cells; +1 nM R1881, 0.3 μM): 22.76 | SLUG expression, antagonist transcription (LNCaP/AR(cs) cells; +1 nM R1881, 0.3 μM): 50.08 | STEAP4 expression, antagonist transcription (LNCaP/AR(cs) cells; +1 nM R1881, 0.3 μM): 585.81 | TMPRSS2 expression, antagonist transcription (LNCaP/AR(cs) cells; +1 nM R1881, 0.3 μM): 19.88 | AMIGO2 expression, antagonist transcription (LNCaP/AR(cs) cells; +1 nM R1881, 1 μM): 0.19 | BDNF expression, antagonist transcription (LNCaP/AR(cs) cells; +1 nM R1881, 1 μM): 0.28 | CAM2KN1 expression, antagonist transcription (LNCaP/AR(cs) cells; +1 nM R1881, 1 μM): 0.06 | FASN expression, antagonist transcription (LNCaP/AR(cs) cells; +1 nM R1881, 1 μM): 0.42 | FKBP5 expression, antagonist transcription (LNCaP/AR(cs) cells; +1 nM R1881, 1 μM): 5.64 | HPGD expression, antagonist transcription (LNCaP/AR(cs) cells; +1 nM R1881, 1 μM): 16.30 | NCAPD3 expression, antagonist transcription (LNCaP/AR(cs) cells; +1 nM R1881, 1 μM): 4.35 | NKX3.1 expression, antagonist transcription (LNCaP/AR(cs) cells; +1 nM R1881, 1 μM): 3.77 | NOV expression, antagonist transcription (LNCaP/AR(cs) cells; +1 nM R1881, 1 μM): 0.14 | PLD1 expression, antagonist transcription (LNCaP/AR(cs) cells; +1 nM R1881, 1 μM): 0.02 | PSA expression, antagonist transcription (LNCaP/AR(cs) cells; +1 nM R1881, 1 μM): 8.82 | SLUG expression, antagonist transcription (LNCaP/AR(cs) cells; +1 nM R1881, 1 μM): 10.20 | STEAP4 expression, antagonist transcription (LNCaP/AR(cs) cells; +1 nM R1881, 1 μM): 109.37 | TMPRSS2 expression, antagonist transcription (LNCaP/AR(cs) cells; +1 nM R1881, 1 μM): 7.72 | AMIGO2 expression, antagonist transcription (LNCaP/AR(cs) cells; +1 nM R1881, 3 μM): 0.48 | BDNF expression, antagonist transcription (LNCaP/AR(cs) cells; +1 nM R1881, 3 μM): 0.63 | CAM2KN1 expression, antagonist transcription (LNCaP/AR(cs) cells; +1 nM R1881, 3 μM): 0.27 | FASN expression, antagonist transcription (LNCaP/AR(cs) cells; +1 nM R1881, 3 μM): 0.71 | FKBP5 expression, antagonist transcription (LNCaP/AR(cs) cells; +1 nM R1881, 3 μM): 3.32 | HPGD expression, antagonist transcription (LNCaP/AR(cs) cells; +1 nM R1881, 3 μM): 13.19 | NCAPD3 expression, antagonist transcription (LNCaP/AR(cs) cells; +1 nM R1881, 3 μM): 3.14 | NKX3.1 expression, antagonist transcription (LNCaP/AR(cs) cells; +1 nM R1881, 3 μM): 6.72 | NOV expression, antagonist transcription (LNCaP/AR(cs) cells; +1 nM R1881, 3 μM): 0.61 | ORM1 expression, antagonist transcription (LNCaP/AR(cs) cells; +1 nM R1881, 3 μM): 257.85 | PLD1 expression, antagonist transcription (LNCaP/AR(cs) cells; +1 nM R1881, 3 μM): 0.13 | PSA expression, antagonist transcription (LNCaP/AR(cs) cells; +1 nM R1881, 3 μM): 11.75 | SLUG expression, antagonist transcription (LNCaP/AR(cs) cells; +1 nM R1881, 3 μM): 10.56 | STEAP4 expression, antagonist transcription (LNCaP/AR(cs) cells; +1 nM R1881, 3 μM): 74.44 | TMPRSS2 expression, antagonist transcription (LNCaP/AR(cs) cells; +1 nM R1881, 3 μM): 10.51 | AMIGO2 expression, antagonist transcription (LNCaP/AR(cs) cells; +1 nM R1881, 10 μM): 0.78 | BDNF expression, antagonist transcription (LNCaP/AR(cs) cells; +1 nM R1881, 10 μM): 0.99 | CAM2KN1 expression, antagonist transcription (LNCaP/AR(cs) cells; +1 nM R1881, 10 μM): 0.50 | FASN expression, antagonist transcription (LNCaP/AR(cs) cells; +1 nM R1881, 10 μM): 0.46 | FKBP5 expression, antagonist transcription (LNCaP/AR(cs) cells; +1 nM R1881, 10 μM): 1.41 | NKX3.1 expression, antagonist transcription (LNCaP/AR(cs) cells; +1 nM R1881, 10 μM): 4.70 | NOV expression, antagonist transcription (LNCaP/AR(cs) cells; +1 nM R1881, 10 μM): 1.00 | ORM1 expression, antagonist transcription (LNCaP/AR(cs) cells; +1 nM R1881, 10 μM): 43.91 | PLD1 expression, antagonist transcription (LNCaP/AR(cs) cells; +1 nM R1881, 10 μM): 0.42 | PSA expression, antagonist transcription (LNCaP/AR(cs) cells; +1 nM R1881, 10 μM): 6.59 | SLUG expression, antagonist transcription (LNCaP/AR(cs) cells; +1 nM R1881, 10 μM): 5.26 | STEAP4 expression, antagonist transcription (LNCaP/AR(cs) cells; +1 nM R1881, 10 μM): 13.61 | TMPRSS2 expression, antagonist transcription (LNCaP/AR(cs) cells; +1 nM R1881, 10 μM): 3.58 | AMIGO2 expression, antagonist transcription (LNCaP/AR(cs) cells; +1 nM R1881, 30 μM): 0.92 | BDNF expression, antagonist transcription (LNCaP/AR(cs) cells; +1 nM R1881, 30 μM): 1.12 | CAM2KN1 expression, antagonist transcription (LNCaP/AR(cs) cells; +1 nM R1881, 30 μM): 0.56 | FASN expression, antagonist transcription (LNCaP/AR(cs) cells; +1 nM R1881, 30 μM): 0.59 | FKBP5 expression, antagonist transcription (LNCaP/AR(cs) cells; +1 nM R1881, 30 μM): 1.50 | HPGD expression, antagonist transcription (LNCaP/AR(cs) cells; +1 nM R1881, 30 μM): 4.25 | NKX3.1 expression, antagonist transcription (LNCaP/AR(cs) cells; +1 nM R1881, 30 μM): 5.03 | NOV expression, antagonist transcription (LNCaP/AR(cs) cells; +1 nM R1881, 30 μM): 0.92 | ORM1 expression, antagonist transcription (LNCaP/AR(cs) cells; +1 nM R1881, 30 μM): 22.70 | PLD1 expression, antagonist transcription (LNCaP/AR(cs) cells; +1 nM R1881, 30 μM): 0.54 | PSA expression, antagonist transcription (LNCaP/AR(cs) cells; +1 nM R1881, 30 μM): 5.65 | SLUG expression, antagonist transcription (LNCaP/AR(cs) cells; +1 nM R1881, 30 μM): 5.22 | STEAP4 expression, antagonist transcription (LNCaP/AR(cs) cells; +1 nM R1881, 30 μM): 7.79 | TMPRSS2 expression, antagonist transcription (LNCaP/AR(cs) cells; +1 nM R1881, 30 μM): 4.62 | FASN gene expression (LNCaP/AR(cs) cells; Table 4A, 1 nM R1881 or 30 μM compound, vehicle=1.00): 1.19
